From ChEMBL document CHEMBL5620353, “Novel antifungal triazoles with alkynyl-methoxyl side chains: Design, synthesis, and biological activity evaluation” (Eur J Med Chem, 2023)
≈ marks a conversion by molar mass, not a printed value. Calls of active or inactive are those of the source. No cut-off for these calls is given here.

Assays:
Candida albicans [1] = experiment: Antibiofilm activity against Candida albicans SC5314 preformed biofilms at 64 ug/ml incubated for 24 hrs by XTT reduction assay relative to control; type: functional; design: scale not given: the % may be the effect or the level left; details: dose 64 µg/ml
Candida albicans [2] = experiment: Antifungal activity against Candida albicans 904 assessed as reduction in fungal viability incubated for 48 hrs by spot assay; type: functional, organism-based; details: dose 0.5-1 µg/ml
[Candida] auris [3] = Antifungal activity against fluconazole-resistant Candida auris 918 assessed as inhibition of fungal growth incubated for 48 hrs by microbroth dilution method; type: functional; details: Candidozyma auris
Candida parapsilosis [4] = experiment: Antifungal activity against Candida parapsilosis 22019 assessed as inhibition of fungal growth incubated for 48 hrs by spot assay; type: functional, organism-based; details: dose 0.5-1 µg/ml
Cytochrome P450 3A4 = Cytochrome P450 3A4 (Homo sapiens, UniProt P08684); experiment: Inhibition of human CYP3A4 using midazolam as substrate prewarmed for 10 mins followed by NADPH addition and measured after 10 mins by LC-MS/MS analysis; type: ADME
Chain of Cytochrome P450 3A4 (P08684 whole entry): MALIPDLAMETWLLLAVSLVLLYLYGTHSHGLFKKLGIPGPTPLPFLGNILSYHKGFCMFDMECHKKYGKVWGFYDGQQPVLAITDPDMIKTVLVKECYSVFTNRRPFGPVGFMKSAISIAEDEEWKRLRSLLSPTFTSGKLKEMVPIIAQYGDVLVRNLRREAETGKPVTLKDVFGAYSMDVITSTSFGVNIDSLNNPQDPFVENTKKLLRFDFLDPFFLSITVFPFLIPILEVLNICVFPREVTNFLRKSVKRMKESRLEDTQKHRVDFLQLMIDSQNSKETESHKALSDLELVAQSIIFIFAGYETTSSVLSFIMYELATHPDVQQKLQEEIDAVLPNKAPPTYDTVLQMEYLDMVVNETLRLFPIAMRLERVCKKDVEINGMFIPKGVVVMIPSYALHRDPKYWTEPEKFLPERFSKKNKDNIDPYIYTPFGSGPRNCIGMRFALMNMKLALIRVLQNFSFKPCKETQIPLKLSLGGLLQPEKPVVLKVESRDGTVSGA

[Candida] auris [5] = Antifungal activity against Candida auris 891 assessed as inhibition of fungal growth incubated for 48 hrs by spot assay; type: functional, organism-based; details: Candidozyma auris, dose 0.5-1 µg/ml
[6] = Cytotoxicity against HUVEC cells assessed as reduction in cell survival incubated for 24 hrs by CCK-8 assay; type: toxicity, cell-based; details: human
Candida parapsilosis [7] = experiment: Antifungal activity against Candida parapsilosis 22019 assessed as reduction in fungal viability incubated for 48 hrs by spot assay; type: functional, organism-based; details: dose 0.5-1 µg/ml
[8] = Metabolic stability in human liver microsomes assessed as half life at 1 uM preincubated for 10 mins followed by NADPH addition and measured upto 60 mins by LC-MS/MS analysis; type: ADME, Microsome; details: time < 70 min
[Candida] auris [9] = Antifungal activity against Candida auris 891 assessed as reduction in fungal viability incubated for 48 hrs by spot assay; type: functional, organism-based; details: Candidozyma auris, dose 0.5-1 µg/ml
Candida albicans [10] = experiment: Antifungal activity against Candida albicans SC5314 assessed as inhibition of fungal growth incubated for 48 hrs by spot assay; type: functional, organism-based; details: dose 0.5-1 µg/ml
Candida albicans [11] = experiment: Antifungal activity against Candida albicans 10231 assessed as inhibition of fungal growth incubated for 48 hrs by microbroth dilution method; type: functional
Nakaseomyces glabratus [12] = experiment: Antifungal activity against Candida glabrata 537 assessed as reduction in fungal viability incubated for 48 hrs by spot assay; type: functional, organism-based; details: dose 0.5-1 µg/ml
Candida albicans [13] = experiment: Antifungal activity against Candida albicans 904 assessed as inhibition of fungal growth incubated for 48 hrs by spot assay; type: functional, organism-based; details: dose 0.5-1 µg/ml
Candida albicans [14] = experiment: Antifungal activity against fluconazole-resistant Candida albicans 901 assessed as inhibition of fungal growth incubated for 48 hrs by microbroth dilution method; type: functional
Cytochrome P450 2D6 = Cytochrome P450 2D6 (Homo sapiens, UniProt P10635); experiment: Inhibition of human CYP2D6 using dextromethorphan as substrate prewarmed for 10 mins followed by NADPH addition and measured after 10 mins by LC-MS/MS analysis; type: ADME
Chain of Cytochrome P450 2D6 (P10635 whole entry): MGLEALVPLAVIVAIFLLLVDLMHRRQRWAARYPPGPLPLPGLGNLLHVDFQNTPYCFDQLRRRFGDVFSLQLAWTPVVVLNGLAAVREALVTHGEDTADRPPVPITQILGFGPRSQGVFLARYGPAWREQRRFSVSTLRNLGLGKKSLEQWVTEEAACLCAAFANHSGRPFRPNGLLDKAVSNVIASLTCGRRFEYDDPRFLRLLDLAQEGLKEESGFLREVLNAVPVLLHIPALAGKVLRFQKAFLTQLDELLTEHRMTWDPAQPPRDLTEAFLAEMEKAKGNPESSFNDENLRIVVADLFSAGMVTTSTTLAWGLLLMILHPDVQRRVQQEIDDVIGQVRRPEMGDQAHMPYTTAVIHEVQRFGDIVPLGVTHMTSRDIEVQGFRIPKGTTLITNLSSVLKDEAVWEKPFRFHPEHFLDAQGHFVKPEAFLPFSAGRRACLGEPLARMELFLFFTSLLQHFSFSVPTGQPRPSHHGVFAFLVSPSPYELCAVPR

Saccharomyces cerevisiae [15] = experiment: Antifungal activity against recombinant Saccharomyces cerevisiae Y2300 overexpressing ScErg11 assessed as inhibition of fungal growth incubated for 48 hrs by microbroth dilution method; type: functional
Cytochrome P450 2C9 = Cytochrome P450 2C9 (Homo sapiens, UniProt P11712); experiment: Inhibition of human CYP2C9 using diclofenac as substrate prewarmed for 10 mins followed by NADPH addition and measured after 10 mins by LC-MS/MS analysis; type: ADME
Chain of Cytochrome P450 2C9 (P11712 whole entry): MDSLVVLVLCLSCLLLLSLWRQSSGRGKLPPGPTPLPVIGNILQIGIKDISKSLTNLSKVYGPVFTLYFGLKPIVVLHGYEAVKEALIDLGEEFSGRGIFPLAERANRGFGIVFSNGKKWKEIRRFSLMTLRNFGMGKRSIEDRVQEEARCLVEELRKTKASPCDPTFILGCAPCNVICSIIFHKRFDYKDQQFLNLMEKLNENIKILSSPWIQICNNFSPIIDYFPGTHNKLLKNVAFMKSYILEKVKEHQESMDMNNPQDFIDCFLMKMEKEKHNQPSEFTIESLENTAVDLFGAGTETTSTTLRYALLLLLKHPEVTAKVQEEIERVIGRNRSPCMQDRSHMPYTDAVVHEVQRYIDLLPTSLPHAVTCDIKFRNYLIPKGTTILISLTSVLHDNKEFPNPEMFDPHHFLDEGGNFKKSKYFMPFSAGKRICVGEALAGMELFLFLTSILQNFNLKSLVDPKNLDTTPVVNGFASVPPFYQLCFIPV

Saccharomyces cerevisiae [16] = experiment: Antifungal activity against recombinant Saccharomyces cerevisiae Y2513 overexpressing ScErg11 Y140H assessed as inhibition of fungal growth incubated for 48 hrs by microbroth dilution method; type: functional
Candida albicans [17] = experiment: Antifungal activity against Candida albicans SC5314 assessed as reduction in fungal viability incubated for 48 hrs by spot assay; type: functional, organism-based; details: dose 0.5-1 µg/ml
[18] = target: T1, Lanosterol 14-alpha demethylase (Candida albicans (strain SC5314 / ATCC MYA-2876) (Yeast), UniProt P10613); experiment: Inhibition of Lanosterol 14-alpha demethylase in Candida albicans SC5314 assessed as reduction in ergosterol level at 8 ug/ml incubated for 8 hrs by GC-MS analysis relative to control; details: at 8 µg/mL
T1 sequence (P10613 whole entry): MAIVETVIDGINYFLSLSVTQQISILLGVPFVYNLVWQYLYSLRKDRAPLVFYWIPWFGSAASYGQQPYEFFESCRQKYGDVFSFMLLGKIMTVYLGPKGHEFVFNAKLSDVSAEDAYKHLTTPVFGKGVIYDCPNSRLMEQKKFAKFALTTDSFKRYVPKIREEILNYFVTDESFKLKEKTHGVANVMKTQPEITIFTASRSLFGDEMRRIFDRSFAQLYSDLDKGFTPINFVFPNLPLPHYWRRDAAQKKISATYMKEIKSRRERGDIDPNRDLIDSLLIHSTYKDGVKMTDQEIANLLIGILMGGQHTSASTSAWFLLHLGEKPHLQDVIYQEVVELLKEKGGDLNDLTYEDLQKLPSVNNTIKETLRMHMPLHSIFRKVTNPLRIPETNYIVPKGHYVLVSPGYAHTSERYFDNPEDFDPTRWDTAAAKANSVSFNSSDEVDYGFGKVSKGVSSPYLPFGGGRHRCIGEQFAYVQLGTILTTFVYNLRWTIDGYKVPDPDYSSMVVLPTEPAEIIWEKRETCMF

Nakaseomyces glabratus [19] = experiment: Antifungal activity against Candida glabrata 537 assessed as inhibition of fungal growth incubated for 48 hrs by spot assay; type: functional, organism-based; details: dose 0.5-1 µg/ml
Cryptococcus neoformans = experiment: Antifungal activity against Cryptococcus neoformans 32,609 assessed as reduction in fungal growth and viability at 0.5 to 1 ug/ml incubated for 48 hrs by spot assay; type: functional, organism-based; details: dose 0.5-1 µg/ml
Candida albicans [20] = experiment: Antifungal activity against fluconazole-resistant Candida albicans 904 assessed as inhibition of fungal growth incubated for 48 hrs by microbroth dilution method; type: functional
[21] = target: T1, Lanosterol 14-alpha demethylase; experiment: Inhibition of Lanosterol 14-alpha demethylase in Candida albicans SC5314 assessed as remaining ergosterol level at 8 ug/ml incubated for 8 hrs by GC-MS analysis (reference value: 89.76%); details: at 8 µg/mL
Candida albicans [22] = experiment: Antifungal activity against Candida albicans SC5314 infected in Galleria mellonella larvae assessed as increase in survival rate at 2 mg/kg measured after 10 days post inoculation; type: functional, organism-based; details: time 10.0 day
Candida albicans [23] = experiment: Antifungal activity against Candida albicans SC5314 infected in Galleria mellonella larvae assessed as delay in time of larval death at 8 mg/kg measured after 10 days post inoculation; type: functional, organism-based; details: time 10.0 day
[24] = target: T1, Lanosterol 14-alpha demethylase; experiment: Inhibition of Lanosterol 14-alpha demethylase in Candida albicans SC5314 assessed as increase in lanosterol level at 8 ug/ml incubated for 8 hrs by GC-MS analysis (reference value: 2.79%); design: scale not given: the % may be the effect or the level left; details: at 8 µg/mL
Candida albicans [25] = experiment: Antifungal activity against Candida albicans SC5314 infected in Galleria mellonella larvae assessed as median survival time at 8 mg/kg measured after 10 days post inoculation; type: functional; details: time 10 day
Candida albicans [26] = experiment: Antifungal activity against Candida albicans SC5314 infected in Galleria mellonella larvae assessed as prolongation of survival time at 2 mg/kg measured after 10 days post inoculation; type: functional, organism-based; details: time 10.0 day
Candida albicans [27] = experiment: Antifungal activity against Candida albicans SC5314 infected in Galleria mellonella larvae assessed as larval survival rate at 8 mg/kg measured after 10 days post inoculation relative to control; type: functional; details: SC5314, 240 h, time 10 day
[28] = target: T1, Lanosterol 14-alpha demethylase; experiment: Inhibition of Lanosterol 14-alpha demethylase in Candida albicans SC5314 assessed as increase in obtusifoliol level at 8 ug/ml incubated for 8 hrs by GC-MS analysis relative to control; design: scale not given: the % may be the effect or the level left; details: at 8 µg/mL
[29] = target: T1, Lanosterol 14-alpha demethylase; experiment: Inhibition of Lanosterol 14-alpha demethylase in Candida albicans SC5314 assessed as increase in eburicol level at 8 ug/ml incubated for 8 hrs by GC-MS analysis relative to control; design: scale not given: the % may be the effect or the level left; details: at 8 µg/mL
Candida albicans [30] = experiment: Antifungal activity against Candida albicans SC5314 assessed as inhibition of fungal growth at 16 ug/ml measured after 24 hrs by optical density based method; type: functional
[31] = target: T1, Lanosterol 14-alpha demethylase; experiment: Inhibition of Lanosterol 14-alpha demethylase in Candida albicans SC5314 assessed as increase in 14alpha-methylfecosterol level at 8 ug/ml incubated for 8 hrs by GC-MS analysis relative to control; design: scale not given: the % may be the effect or the level left; details: at 8 µg/mL
Candida albicans [32] = experiment: Antifungal activity against Candida albicans assessed as increase in pseudohyphae at 16 ug/ml; type: functional, organism-based; details: dose 16.0 µg/ml
Candida albicans [33] = experiment: Antifungal activity against Candida albicans assessed as reduction in hyphal length at 16 ug/ml; type: functional, organism-based; details: dose 16.0 µg/ml

Compound | Activity (Candida albicans [1]) [%] | Activity (Candida albicans [2]) | MIC ([Candida] auris [3]) [µg/mL] | Activity (Candida parapsilosis [4]) | IC50 (Cytochrome P450 3A4) [nM] | Activity ([Candida] auris [5]) | IC50 at 24 h [6] [µg/mL] | Activity (Candida parapsilosis [7]) | half-life at 1 µM [8] [min] | Activity ([Candida] auris [9]) | Activity (Candida albicans [10]) | MIC (Candida albicans [11]) [µg/mL] | Activity (Nakaseomyces glabratus [12]) | MIC (Candida albicans [14]) [µg/mL] | IC50 (Cytochrome P450 2D6) [nM] | MIC (Saccharomyces cerevisiae [15]) [µg/mL] | IC50 (Cytochrome P450 2C9) [nM] | MIC (Saccharomyces cerevisiae [16]) [µg/mL] | Activity (Cryptococcus neoformans) | MIC (Candida albicans [20]) [µg/mL] | further results
C[C@@H](OCC#Cc1ccc(F)cc1F)[C@](O)(Cn1cncn1)c1ccc(F)cc1F | 51.39 | Dose-Dependent Effect | 16 (≈ 38.2 µM) | Dose-Dependent Effect | 566 | Dose-Dependent Effect | 76.4 (≈ 182 µM) | Dose-Dependent Effect | 50.8 | Dose-Dependent Effect | Dose-Dependent Effect | 8 (≈ 19.1 µM) | Dose-Dependent Effect | 32 (≈ 76.3 µM) | 23800 | 0.063 | 23 | 0.031 | Active | 16 (≈ 38.2 µM) | Activity (Candida albicans [13]): Dose-Dependent Effect; Activity (Candida albicans [17]): Dose-Dependent Effect; inhibition (INH) [18]: ~ 100%; Activity (Nakaseomyces glabratus [19]): Dose-Dependent Effect
C[C@@H](OCC#Cc1ccncc1)[C@](O)(Cn1cncn1)c1ccc(F)cc1F | 50.31 |  | 16 (≈ 41.6 µM) |  | 309 |  | 64.9 (≈ 169 µM) |  | 7.35 |  |  | 32 (≈ 83.2 µM) |  | 32 (≈ 83.2 µM) | 5810 | 0.031 | 39 | 0.031 | Active | 32 (≈ 83.2 µM) | Activity [21]: 1.1%
C[C@@H](OCC#Cc1ccc(C#N)cc1)[C@](O)(Cn1cncn1)c1ccc(F)cc1F | 55.46 | Dose-Dependent Effect | 32 (≈ 78.4 µM) | Dose-Dependent Effect | 607 | Dose-Dependent Effect | 88.5 (≈ 217 µM) | Dose-Dependent Effect | 54.5 | Dose-Dependent Effect | Dose-Dependent Effect | 8 (≈ 19.6 µM) | Dose-Dependent Effect | 16 (≈ 39.2 µM) | 27200 | 0.031 | 34 | 0.016 | Active | 16 (≈ 39.2 µM) | Activity (Candida albicans [22]): inactive; Activity (Candida albicans [23]): Active; Activity [24]: 37.18%; MST (Candida albicans [25]): 10 days; Activity (Candida albicans [13]): Dose-Dependent Effect; Activity (Candida albicans [26]): Active; Activity (Candida albicans [17]): Dose-Dependent Effect; inhibition (INH) [18]: ~ 100%; survival at 8 mg/kg (Candida albicans [27]): 40%; Activity (Nakaseomyces glabratus [19]): Dose-Dependent Effect; Activity [28]: 12.82%; Activity [29]: 13.13%; inhibition at 16 µg/mL (Candida albicans [30]): 100%; Activity [31]: 36.87%; Activity (Candida albicans [32]): Active; Activity (Candida albicans [33]): Active
